Laboratory results: patent US20250136581A1, “SUBSTITUTED TRIAZOLE DERIVATIVE, PREPARATION METHOD THEREFOR, PHARMACEUTICAL COMPOSITION THEREOF, AND USE THEREOF” (SHANGHAI SIMR BIOTECHNOLOGY CO., LTD., priority 2021, published 2025)
Read-outs that look alike come from different tables or passages of the source.

Experiments:
[1] = biological target: α5-GABAA receptor (α5, β3, γ2 subunits) (Homo sapiens (Human), UniProt P18507+P31644); assay: Whole cell patch clamp, inverse agonist efficacy in HEK293 cells expressing α5-GABAA receptor; assay type: cell-based; conditions: HEK293, drug 100 nM, GABA 0.05 μM, −60 mV; read-out: Compound inverse agonist efficacy %
In short: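 Stable HEK293 line co-expressing human α5, β3, γ2 subunits; whole-cell patch clamp at −60 mV, inward current evoked by 0.05 μM GABA, then compound at 100 nM in GABA solution applied. Effect derived from leak, pre- and post-drug GABA currents.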

[2] = biological target: human α5β3γ2 receptors (α5-GABAA receptor) (Homo sapiens (Human), UniProt P18507+P31644); assay: 3H-flunitrazepam competition binding, human α5β3γ2 GABAA receptor; conditions: HEK293 cell membranes, 1 nM 3H-flunitrazepam
In short: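 HEK293 membranes stably expressing each human receptor subtype ([…]) competed against 1 nM 3H-flunitrazepam in Tris buffer, 1 h at room temperature; flumazenil defined the low-signal control. Eight-point 4-fold test-compound dilutions; GF/C filtration and scintillation counting gave IC50 by curve fitting, converted to Ki.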

Cn1nnc(-c2ccc(F)cc2)c1COc1ccc(N2CCNC(=O)C2)nn1 [Example 128, 4-(6-((4-(4-Fluorophenyl)-1-methyl-1H-1,2,3-triazol-5-yl)methoxy)pyridazin-3-yl)piperazin-2-one]
inhibition at 0.1 µM [1]: 53.9%
Ki ([2]; read-out: α5-GABAAR Ki): 22.5 nM

Cc1nnn(-c2ccc(OC(F)F)cc2)c1COc1ccc(N2CCN3CCNC(=O)[C@@H]3C2)nn1 [Example 130, (S)-8-(6-((1-(4-(Difluoromethoxy)phenyl)-4-methyl-1H-1,2,3-triazol-5-yl)methoxy)pyridazin-3-yl)octahydro-2H-pyrazino[1,2-a]pyrazin-1(6H)-one]
inhibition at 0.1 µM [1]: 57%
Ki ([2]; read-out: α5-GABAAR Ki): 17.1 nM

O=C1CN(c2ccc(OCc3c(Cl)nnn3-c3ccc(C(F)F)cc3)nn2)CCN1 [Example 131, 4-(6-((4-Chloro-1-(4-(difluoromethyl)phenyl)-1H-1,2,3-triazol-5-yl)methoxy)pyridazin-3-yl)piperazin-2-one]
inhibition at 0.1 µM [1]: 47.6%
Ki ([2]; read-out: α5-GABAAR Ki): 1.34 nM

O=C1CN(c2ccc(OCc3cnnn3-c3ccc(C(F)F)cc3)nn2)CCN1 [Example 132, 4-(6-((1-(4-(Difluoromethyl)phenyl)-1H-1,2,3-triazol-5-yl)methoxy)pyridazin-3-yl)piperazin-2-one]
inhibition at 0.1 µM [1]: 53.2%
Ki ([2]; read-out: α5-GABAAR Ki): 12.1 nM

COc1cc(N2CCNC(=O)C2)nnc1OCc1c(C)nnn1-c1ccc(C(F)F)cc1 [Example 134, 4-(6-((1-(4-(Difluoromethyl)phenyl)-4-methyl-1H-1,2,3-triazol-5-yl)methoxy)-5-methoxypyridazin-3-yl)piperazin-2-one]
inhibition at 0.1 µM [1]: 45.7%
Ki ([2]; read-out: α5-GABAAR Ki): 1.5 nM

COCCN1CCN(c2ccc(OCc3c(C)nnn3-c3ccc(C(F)F)cc3)nn2)CC1=O [Example 139, 4-(6-((1-(4-(Difluoromethyl)phenyl)-4-methyl-1H-1,2,3-triazol-5-yl)methoxy)pyridazin-3-yl)-1-(2-methoxyethyl)piperazin-2-one]
inhibition at 0.1 µM [1]: 46.4%
Ki ([2]; read-out: α5-GABAAR Ki): 1.37 nM

COC(C)CN1CCN(c2ccc(OCc3c(C)nnn3-c3ccc(C(F)F)cc3)nn2)CC1=O (stereo not shown) [Example 141, 4-(6-((1-(4-(Difluoromethyl)phenyl)-4-methyl-1H-1,2,3-triazol-5-yl)methoxy)pyridazin-3-yl)-1-(2-methoxypropyl)piperazin-2-one]
inhibition at 0.1 µM [1]: 47.2%
Ki ([2]; read-out: α5-GABAAR Ki): 4.27 nM

Cc1nnn(-c2ccc(C(F)F)cc2)c1COc1ccc(N2CCN(CCCC#N)C(=O)C2)nn1 [Example 143, 4-(4-(6-((1-(4-(Difluoromethyl)phenyl)-4-methyl-1H-1,2,3-triazol-5-yl)methoxy)pyridazin-3-yl)-2-oxopiperazin-1-yl)butanenitrile]
inhibition at 0.1 µM [1]: 52.5%
Ki ([2]; read-out: α5-GABAAR Ki): 1.89 nM

Cc1nnn(-c2ccc(C(F)F)cc2)c1COc1ccc(N2CCN(CCCc3ccc(C#N)cc3)C(=O)C2)nn1 [Example 145, 4-(3-(4-(6-((1-(4-(Difluoromethyl)phenyl)-4-methyl-1H-1,2,3-triazol-5-yl)methoxy)pyridazin-3-yl)-2-oxopiperazin-1-yl)propyl)benzonitrile]
inhibition at 0.1 µM [1]: 69%
Ki ([2]; read-out: α5-GABAAR Ki): 1.27 nM

O=C(O)c1ccc(CCCN2CCN(c3ccc(OCc4c(Cl)nnn4-c4ccc(C(F)F)cc4)nn3)CC2=O)cc1 [Example 146, 4-(3-(4-(6-((4-Chloro-1-(4-(difluoromethyl)phenyl)-1H-1,2,3-triazol-5-yl)methoxy)pyridazin-3-yl)-2-oxopiperazin-1-yl)propyl)benzoic acid]
inhibition at 0.1 µM [1]: 56.5%
Ki ([2]; read-out: α5-GABAAR Ki): 4.44 nM

Cc1nnn(-c2ccc(C(F)F)cc2)c1COc1ccc(N2CCN3CCN(C4COC4)C(=O)[C@@H]3C2)nn1 [Example 147, (S)-8-(6-((1-(4-(Difluoromethyl)phenyl)-4-methyl-1H-1,2,3-triazol-5-yl)methoxy)pyridazin-3-yl)-2-(oxetan-3-yl)hexahydro-2H-pyrazino[1,2-a]pyrazin-1(6H)-one]
inhibition at 0.1 µM [1]: 54.5%
Ki ([2]; read-out: α5-GABAAR Ki): 6.55 nM

Cc1nnn(-c2ccc(C(F)F)cc2)c1COc1ccc(N2CC(C(=O)N3CCCC(O)C3)C2)nn1 (stereo not shown) [Example 154, (1-(6-((1-(4-(Difluoromethyl)phenyl)-4-methyl-1H-1,2,3-triazol-5-yl)methoxy)pyridazin-3-yl)azetidin-3-yl)(3-hydroxypiperidin-1-yl)methanone]
inhibition at 0.1 µM [1]: 46.6%
Ki ([2]; read-out: α5-GABAAR Ki): 5.26 nM

Cc1nnn(-c2ccc(C(F)F)cc2)c1COc1ccc(N2CC(C(=O)N3CC(C)OC(C)C3)C2)nn1 (stereo not shown) [Example 156, (1-(6-((1-(4-(Difluoromethyl)phenyl)-4-methyl-1H-1,2,3-triazol-5-yl)methoxy)pyridazin-3-yl)azetidin-3-yl)(2,6-dimethylmorpholino)methanone]
inhibition at 0.1 µM [1]: 44.3%
Ki ([2]; read-out: α5-GABAAR Ki): 4.13 nM

Cc1nnn(-c2ccc(C(F)F)cc2)c1COc1ccc(N2CC(C(=O)N3CC4CC3CO4)C2)nn1 (stereo not shown) [Example 157, (2-Oxa-5-azabicyclo[2.2.1]heptan-5-yl)(1-(6-((1-(4-(difluoromethyl)phenyl)-4-methyl-1H-1,2,3-triazol-5-yl)methoxy)pyridazin-3-yl)azetidin-3-yl)methanone]
inhibition at 0.1 µM [1]: 44.2%
Ki ([2]; read-out: α5-GABAAR Ki): 3.53 nM

CCNC(=O)C1CN(c2ccc(OCc3c(C)nnn3-c3ccc(C(F)F)cc3)nc2)C1 [Example 159, 1-(6-((1-(4-(Difluoromethyl)phenyl)-4-methyl-1H-1,2,3-triazol-5-yl)methoxy)pyridin-3-yl)-N-ethylazetidine-3-carboxamide]
inhibition at 0.1 µM [1]: 49.9%
Ki ([2]; read-out: α5-GABAAR Ki): 20 nM

Cc1nnn(-c2ccc(C(F)F)cc2)c1COc1ccc(N2CC(C(=O)N3CCOCC3)C2)cn1 [Example 160, (1-(6-((1-(4-(Difluoromethyl)phenyl)-4-methyl-1H-1,2,3-triazol-5-yl)methoxy)pyridin-3-yl)azetidin-3-yl)(morpholino)methanone]
inhibition at 0.1 µM [1]: 42.7%
Ki ([2]; read-out: α5-GABAAR Ki): 6.21 nM

Cc1nnn(-c2ccc(CF)cc2)c1COc1ccc(N2CCN3CCNC(=O)[C@@H]3C2)nn1 [Example 162, (S)-8-(6-((1-(4-(Fluoromethyl)phenyl)-4-methyl-1H-1,2,3-triazol-5-yl)methoxy)pyridazin-3-yl)hexahydro-2H-pyrazino[1,2-a]pyrazin-1(6H)-one]
inhibition at 0.1 µM [1]: 47.7%
Ki ([2]; read-out: α5-GABAAR Ki): 2.58 nM

Cc1nnn(-c2ccc(Cl)cc2)c1COc1ccc(N2CCN3CCNC(=O)[C@@H]3C2)nn1 [Example 163, (S)-8-(6-((1-(4-Chlorophenyl)-4-methyl-1H-1,2,3-triazol-5-yl)methoxy)pyridazin-3-yl)hexahydro-2H-pyrazino[1,2-a]pyrazin-1(6H)-one]
inhibition at 0.1 µM [1]: 43.6%
Ki ([2]; read-out: α5-GABAAR Ki): 26.4 nM

Cc1nnn(-c2ccc(C(F)F)cc2F)c1COc1ccc(N2CCN3CCNC(=O)[C@@H]3C2)nn1 [Example 168, (S)-8-(6-((1-(4-(Difluoromethyl)-2-fluorophenyl)-4-methyl-1H-1,2,3-triazol-5-yl)methoxy)pyridazin-3-yl)hexahydro-2H-pyrazino[1,2-a]pyrazin-1(6H)-one]
inhibition at 0.1 µM [1]: 42.4%
Ki ([2]; read-out: α5-GABAAR Ki): 2.84 nM

CC(=O)N1CCN(c2ccc(OCc3c(C)nnn3-c3ccc(C(F)F)cc3)nn2)CC1 [Example 171, 1-(4-(6-((1-(4-(Difluoromethyl)phenyl)-4-methyl-1H-1,2,3-triazol-5-yl)methoxy)pyridazin-3-yl)piperazin-1-yl)ethan-1-one]
inhibition at 0.1 µM [1]: 42%
Ki ([2]; read-out: α5-GABAAR Ki): 1.07 nM

Cc1nnn(-c2ccc(C(F)F)cc2)c1COc1cnc(N2CCN3CCNC(=O)[C@@H]3C2)cn1 [Example 178, (S)-8-(5-((1-(4-(Difluoromethyl)phenyl)-4-methyl-1H-1,2,3-triazol-5-yl)methoxy)pyrazin-2-yl)hexahydro-2H-pyrazino[1,2-a]pyrazin-1(6H)-one]
inhibition at 0.1 µM [1]: 49.7%
Ki ([2]; read-out: α5-GABAAR Ki): 17.2 nM

Cc1nnn(-c2ccc(C(F)F)cc2)c1COc1ccc(N2CC3COCCN3C2=O)nn1 (stereo not shown) [Example 180, 2-(6-((1-(4-(Difluoromethyl)phenyl)-4-methyl-1H-1,2,3-triazol-5-yl)methoxy)pyridazin-3-yl)hexahydro-3H-imidazo[5,1-c][1,4]oxazin-3-one]
inhibition at 0.1 µM [1]: 40.3%
Ki ([2]; read-out: α5-GABAAR Ki): 1.19 nM

O=C1CN(c2ccc(OCc3c(Cl)nnn3-c3ccc(F)cc3)nn2)CCN1 [Example 189, 4-(6-((4-Chloro-1-(4-fluorophenyl)-1H-1,2,3-triazol-5-yl)methoxy)pyridazin-3-yl)piperazin-2-one]
inhibition at 0.1 µM [1]: 42.1%
Ki ([2]; read-out: α5-GABAAR Ki): 9.44 nM

Cc1nnn(-c2ccc(C(F)F)cc2)c1COc1ccc(N2CCN3[C@@H]4CCC[C@@H]4NC(=O)[C@@H]3C2)nn1 [Example 197, (4aS,6aS,9aR)-3-(6-((1-(4-(Difluoromethyl)phenyl)-4-methyl-1H-1,2,3-triazol-5-yl)methoxy)pyridazin-3-yl)decahydrocyclopenta[e]pyrazino[1,2-a]pyrazin-5(1H)-one]
inhibition at 0.1 µM [1]: 52.4%
Ki ([2]; α5-GABAAR Ki): 4.95 nM

Cc1nnn(-c2ccc(C(F)F)cc2)c1COc1ccc(N2CCN3[C@@H](C2)C(=O)N[C@@H]2CCC[C@@H]23)nn1 [Example 198, (4aS,6aR,9aS)-3-(6-((1-(4-(difluoromethyl)phenyl)-4-methyl-1H-1,2,3-triazol-5-yl)methoxy)pyridazin-3-yl)decahydrocyclopenta[e]pyrazino[1,2-a]pyrazin-5(1H)-one]
inhibition at 0.1 µM [1]: 48.2%
Ki ([2]; α5-GABAAR Ki): 3.13 nM

Cc1nnn(-c2ccc(C(F)F)cc2)c1COc1ccc(N2CCN3C4CCCCC4NC(=O)[C@@H]3C2)nn1 (stereo partly drawn) [Example 199, (4aS)-3-(6-((1-(4-(Difluoromethyl)phenyl)-4-methyl-1H-1,2,3-triazol-5-yl)methoxy)pyridazin-3-yl)decahydro-1H-pyrazino[1,2-a]quinoxalin-5(6H)-one]
inhibition at 0.1 µM [1]: 60.2%
Ki ([2]; α5-GABAAR Ki): 3.17 nM
